Measurements: patent US6855710B2, “Substituted indolines with an inhibitory effect on various kinases and complexes of CDKs” (Boehringer Ingelheim Pharma KG, priority 1998, dated 2005)

Structure (SMILES)	melting point
CN(C)Cc1ccc(N/C(=C2\C(=O)Nc3ccc([N+](=O)[O-])cc32)c2cccc(Cl)c2)cc1 [Example 224, (Z)-3-[1-(4-dimethylaminomethyl-phenylamino)-1-(3-chlorophenyl)-methylidene]-5-nitro-2-indolinone]	274 °C
COC(=O)C(Cc1ccc(N/C(=C2\C(=O)Nc3ccc([N+](=O)[O-])cc32)c2ccccc2)cc1)NC(=O)OC(C)(C)C (centres unmarked) [Example 225, (Z)-3-{1-[4-(2-tert.butoxycarbonylamino-2-methoxycarbonyl-ethyl)-phenylamino]-1-phenyl-methylidene}-5-nitro-2-indolinone]	139 °C
CC(C)(C)OC(=O)NC(Cc1ccc(N/C(=C2\C(=O)Nc3ccc([N+](=O)[O-])cc32)c2ccccc2)cc1)C(=O)O (centres unmarked) [Example 226, (Z)-3-{1-[4-(2-tert.butoxycarbonylamino-2-carboxy-ethyl)-phenylamino]-1-phenyl-methylidene}-5-nitro-2-indolinone]	235 °C (dec.)
O=C1Nc2ccc([N+](=O)[O-])cc2/C1=C(/Nc1ccc(CNc2ccccc2)cc1)c1ccccc1 [Example 233, (Z)-3-{1-[4-(phenylaminomethyl)-phenylamino]-1-phenyl-methylidene}-5-nitro-2-indolinone]	274 to 277 °C
CN(Cc1ccc(N/C(=C2\C(=O)Nc3ccc([N+](=O)[O-])cc32)c2ccccc2)cc1)c1ccccc1 [Example 234, (Z)-3-{1-[4-(N-methyl-N-phenyl-aminomethyl)-phenylamino]-1-phenyl-methylidene}-5-nitro-2-indolinone]	228 to 230 °C
CN(Cc1ccc(N/C(=C2\C(=O)Nc3ccc([N+](=O)[O-])cc32)c2ccccc2)cc1)c1ccccn1 [Example 235, (Z)-3-{1-[4-(N-methyl-N-(2-pyridyl)-aminomethyl)-phenylamino]-1-phenyl-methylidene}-5-nitro-2-indolinone]	213 to 216 °C
CC(C)(C)OC(=O)N(Cc1ccccc1)Cc1ccc(N/C(=C2\C(=O)Nc3ccc([N+](=O)[O-])cc32)c2ccccc2)cc1 [Example 236, (Z)-3-{1-[4-(N-benzyl-N-tert.butoxycarbonyl-aminomethyl)-phenylamino]-1-phenyl-methylidene}-5-nitro-2-indolinone]	202 to 203 °C (dec.)
CN(Cc1ccccc1)Cc1ccc(N/C(=C2\C(=O)Nc3ccc([N+](=O)[O-])cc32)c2ccccc2)cc1 [Example 238, (Z)-3-{1-[4-(N-benzyl-N-methyl-aminomethyl)-phenylamino]-1-phenyl-methylidene}-5-nitro-2-indolinone]	200 to 201 °C
NC(CCO)(CCO)c1ccc(N/C(=C2\C(=O)Nc3ccc([N+](=O)[O-])cc32)c2ccccc2)cc1 [Example 240, (Z)-3-{1-[4-(Bis-(2-hydroxyethyl)-aminomethyl)-phenylamino]-1-phenyl-methylidene}-5-nitro-2-indolinone]	196 to 198 °C
CCOC(=O)CCNCc1ccc(N/C(=C2\C(=O)Nc3ccc([N+](=O)[O-])cc32)c2ccccc2)cc1 [Example 241, (Z)-3-{1-[4-(2-ethoxycarbonyl-ethylaminomethyl)-phenylamino]-1-phenyl-methylidene}-5-nitro-2-indolinone]	129 to 131 °C
O=C(O)CCNCc1ccc(N/C(=C2\C(=O)Nc3ccc([N+](=O)[O-])cc32)c2ccccc2)cc1 [Example 242, (Z)-3-{1-[4-(2-carboxy-ethylaminomethyl)-phenylamino]-1-phenyl-methylidene}-5-nitro-2-indolinone]	220 to 222 °C
CN(C)C(=O)CCNCc1ccc(N/C(=C2\C(=O)Nc3ccc([N+](=O)[O-])cc32)c2ccccc2)cc1 [Example 243, (Z)-3-{1-[4-(2-dimethylaminocarbonyl-ethylaminomethyl)-phenylamino]-1-phenyl-methylidene}-5-nitro-2-indolinone]	215 to 217 °C
CC(C)(C)OC(=O)N1CCN(Cc2ccc(N/C(=C3\C(=O)Nc4ccc([N+](=O)[O-])cc43)c3ccccc3)cc2)CC1 [Example 244, (Z)-3-{1-[4-(4-tert.butoxycarbonyl-piperazin-1-ylmethyl)-phenylamino]-1-phenyl-methylidene}-5-nitro-2-indolinone]	236 to 237 °C (dec.)
O=C(O)CCNCc1cccc(N/C(=C2\C(=O)Nc3ccc([N+](=O)[O-])cc32)c2ccccc2)c1 [Example 252, (Z)-3-{1-[3-(2-carboxyethylaminomethyl)-phenylamino]-1-phenyl-methylidene}-5-nitro-2-indolinone]	247 to 249 °C
CN(C)C(=O)CCNCc1cccc(N/C(=C2\C(=O)Nc3ccc([N+](=O)[O-])cc32)c2ccccc2)c1 [Example 253, (Z)-3-{1-[3-(2-dimethylaminocarbonyl-ethylaminomethyl)-phenylamino]-1-phenyl-methylidene}-5-nitro-2-indolinone]	177 to 179 °C
O=C1Nc2ccc([N+](=O)[O-])cc2/C1=C(/Nc1ccc(CCNCCO)cc1)c1ccccc1 [Example 256, (Z)-3-{1-[4-(2-(2-hydroxyethylamino)-ethyl)-phenylamino]-1-phenyl-methylidene}-5-nitro-2-indolinone]	236 to 238 °C
Br.COCCNCCc1ccc(N/C(=C2\C(=O)Nc3ccc([N+](=O)[O-])cc32)c2ccccc2)cc1 [Example 257, (Z)-3-{1-[4-(2-(2-methoxyethylamino)-ethyl)-phenylamino]-1-phenyl-methylidene}-5-nitro-2-indolinone-hydrobromide]	297 to 299 °C
O=C(O)CNCCc1ccc(N/C(=C2\C(=O)Nc3ccc([N+](=O)[O-])cc32)c2ccccc2)cc1 [Example 258, (Z)-3-{1-[4-(2-carboxymethylamino-ethyl)-phenylamino]-1-phenyl-methylidene}-5-nitro-2-indolinone]	242 to 243 °C (dec.)

Second part, the molecule after the results:

melting point	Structure (SMILES)
276 to 277 °C	O=C1Nc2ccc([N+](=O)[O-])cc2/C1=C(/Nc1ccc(CN2CCSCC2)cc1)c1ccccc1 [Example 229, (Z)-3-[1-(4-thiomorpholinomethyl-phenylamino)-1-phenyl-methylidene]-5-nitro-2-indolinone]
289 to 290 °C	O=C1Nc2ccc([N+](=O)[O-])cc2/C1=C(/Nc1ccc(CN2CC[S+]([O-])CC2)cc1)c1ccccc1 [Example 230, (Z)-3-{1-[4-((1-oxothiomorpholino)-methyl)-phenylamino]-1-phenyl-methylidene}-5-nitro-2-indolinone]
328 to 329 °C (dec.)	O=C1Nc2ccc([N+](=O)[O-])cc2/C1=C(/Nc1ccc(CN2CCS(=O)(=O)CC2)cc1)c1ccccc1 [Example 231, (Z)-3-{1-[4-((1,1-dioxothiomorpholino)-methyl)-phenylamino]-1-phenyl-methylidene}-5-nitro-2-indolinone]
215 °C	CN(Cc1ccc(N/C(=C2\C(=O)Nc3ccc([N+](=O)[O-])cc32)c2ccccc2)cc1)C1CCCCC1 [Example 232, (Z)-3-{1-[4-(N-cyclohexyl-N-methyl-aminomethyl)-phenylamino]-1-phenyl-methylidene}-5-nitro-2-indolinone]
196 to 198 °C	O=C1Nc2ccc([N+](=O)[O-])cc2/C1=C(/Nc1ccc(CNCCO)cc1)c1ccccc1 [Example 239, (Z)-3-{1-[4-(2-hydroxy-ethylaminomethyl)-phenylamino]-1-phenyl-methylidene}-5-nitro-2-indolinone]
275 to 277 °C	CC(=O)N1CCN(Cc2ccc(N/C(=C3\C(=O)Nc4ccc([N+](=O)[O-])cc43)c3ccccc3)cc2)CC1 [Example 246, (Z)-3-{1-[4-(4-acetylpiperazin-1-ylmethyl)-phenylamino]-1-phenyl-methylidene}-5-nitro-2-indolinone]
296 to 297 °C	NC(=O)C1CCN(Cc2ccc(N/C(=C3\C(=O)Nc4ccc([N+](=O)[O-])cc43)c3ccccc3)cc2)CC1 [Example 247, (Z)-3-{1-[4-(4-aminocarbonyl-piperidinomethyl)-phenylamino]-1-phenyl-methylidene}-5-nitro-2-indolinone]
263 to 265 °C	CNC(=O)C1CCN(Cc2ccc(N/C(=C3\C(=O)Nc4ccc([N+](=O)[O-])cc43)c3ccccc3)cc2)CC1 [Example 248, (Z)-3-{1-[4-(4-methylaminocarbonyl-piperidinomethyl)-phenylamino]-1-phenyl-methylidene}-5-nitro-2-indolinone]
272 to 273 °C	CN(C)C(=O)C1CCN(Cc2ccc(N/C(=C3\C(=O)Nc4ccc([N+](=O)[O-])cc43)c3ccccc3)cc2)CC1 [Example 249, (Z)-3-{1-[4-(4-dimethylaminocarbonyl-piperidinomethyl)-phenylamino]-1-phenyl-methylidene}-5-nitro-2-indolinone]
227 to 228 °C	O=C1Nc2ccc([N+](=O)[O-])cc2/C1=C(/Nc1ccc(CN2CCC(CO)CC2)cc1)c1ccccc1 [Example 250, (Z)-3-{1-[4-(4-hydroxymethyl-piperidinomethyl)-phenylamino]-1-phenyl-methylidene}-5-nitro-2-indolinone]
186 to 187 °C	CC1(O)CCN(Cc2ccc(N/C(=C3\C(=O)Nc4ccc([N+](=O)[O-])cc43)c3ccccc3)cc2)CC1 [Example 251, (Z)-3-{1-[4-(4-hydroxy-4-methyl-piperidinomethyl)-phenylamino]-1-phenyl-methylidene}-5-nitro-2-indolinone]
250 to 252 °C	CNCCc1ccc(N/C(=C2\C(=O)Nc3ccc([N+](=O)[O-])cc32)c2ccccc2)cc1 [Example 254, (Z)-3-{1-[4-(2-methylamino-ethyl)-phenylamino]-1-phenyl-methylidene}-5-nitro-2-indolinone]
235 to 237 °C	CCNCCc1ccc(N/C(=C2\C(=O)Nc3ccc([N+](=O)[O-])cc32)c2ccccc2)cc1 [Example 255, (Z)-3-{1-[4-(2-ethylamino-ethyl)-phenylamino]-1-phenyl-methylidene}-5-nitro-2-indolinone]
252 to 253 °C	CC1CCN(CCc2ccc(N/C(=C3\C(=O)Nc4ccc([N+](=O)[O-])cc43)c3ccccc3)cc2)CC1 [Example 259, (Z)-3-{1-[4-(2-(4-methylpiperidino)-ethyl)-phenylamino]-1-phenyl-methylidene}-5-nitro-2-indolinone]
